# Assay: Host toxicity monitoring in the CWR22Rv1 xenograft study (body weight, health status)
# Type: in vivo, male NOD SCID mice
# Experimental: Following the in vitro studies and determination of the PK parameters, we then investigated the relative efficacy. Gal and the NGGAs in vivo using difficult-to-treat castration-resistant CWR22Rv1 xenografts. Given the enhanced IP and PO PK parameters of VNPP414 and VNPP433-3β over Gal, we decided to use lower doses of the new analogs compared to the previous Gal doses (200 mg/kg, IP/PO). Gal (200 mg/kg) served as positive control, while ENZ (25 mg/kg) administered PO was used as negative control. Male NOD SCID mice bearing CWR22Rv1 tumors were treated with vehicle, ENZ, Gal, VNPP414, and VNPP433-3β for 16 days as described in the Methods and Materials Section. […] In contrast, Gal and the NGGAs caused statistically significant tumor growth inhibition (TGI). […] It is notable that VNPP433-3β (at 7.5- and 15-fold lower molar doses) and VNPP414 (at 4-fold lower molar dose) are more efficacious than Gal. In general, no host toxicities were observed, as monitored by changes in animal body weight (Figure 7C). […]
compound,measurement,setting,value
C[C@]12CC[C@H](n3ccnc3)CC1=CCC1C2CC[C@]2(C)C(n3cnc4ccccc43)=CCC12 (stereo partly drawn) [VNPP433-3β],mortality,"30 mg/kg PO once daily group, 5 mice",one mouse died on day 16
same,"host toxicity, monitored by changes in animal body weight","CWR22Rv1 tumor-bearing mice, PO, 16 days",no apparent host toxicity
